According to ChEMBL document CHEMBL5291721, “A preclinical secondary pharmacology resource illuminates target-adverse drug reaction associations of marketed drugs” (Nat Commun, 2023):

Legend:
[1] = molecular target: T1, Gamma-aminobutyric acid receptor subunit alpha-1 (Rattus norvegicus, UniProt P62813)
Motilin receptor = Motilin receptor (Homo sapiens, UniProt O43193)
[2] = molecular target: T1, Gamma-aminobutyric acid receptor subunit alpha-1; type: functional
[3] = molecular target: T2, 5-hydroxytryptamine receptor 1A (Homo sapiens, UniProt P08908); type: functional, cell-based
T2 sequence (P08908 whole entry): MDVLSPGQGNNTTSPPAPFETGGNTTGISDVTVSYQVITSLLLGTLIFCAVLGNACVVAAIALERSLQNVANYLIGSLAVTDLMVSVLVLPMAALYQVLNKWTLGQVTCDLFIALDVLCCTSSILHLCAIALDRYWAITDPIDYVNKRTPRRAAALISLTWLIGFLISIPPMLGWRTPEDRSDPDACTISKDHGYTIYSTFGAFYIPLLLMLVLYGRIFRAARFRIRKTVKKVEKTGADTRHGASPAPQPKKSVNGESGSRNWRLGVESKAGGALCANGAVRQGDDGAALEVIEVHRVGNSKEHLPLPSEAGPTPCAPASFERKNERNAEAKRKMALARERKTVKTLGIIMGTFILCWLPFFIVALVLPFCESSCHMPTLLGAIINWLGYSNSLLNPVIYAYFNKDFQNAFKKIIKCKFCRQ

Melanocortin receptor 4 = Melanocortin receptor 4 (Homo sapiens, UniProt P32245)
[4] = molecular target: Beta-2 adrenergic receptor (Homo sapiens, UniProt P07550)
[5] = molecular target: T3, Alpha-1A adrenergic receptor (Homo sapiens, UniProt P35348); type: functional, cell-based
T3 sequence (P35348 whole entry): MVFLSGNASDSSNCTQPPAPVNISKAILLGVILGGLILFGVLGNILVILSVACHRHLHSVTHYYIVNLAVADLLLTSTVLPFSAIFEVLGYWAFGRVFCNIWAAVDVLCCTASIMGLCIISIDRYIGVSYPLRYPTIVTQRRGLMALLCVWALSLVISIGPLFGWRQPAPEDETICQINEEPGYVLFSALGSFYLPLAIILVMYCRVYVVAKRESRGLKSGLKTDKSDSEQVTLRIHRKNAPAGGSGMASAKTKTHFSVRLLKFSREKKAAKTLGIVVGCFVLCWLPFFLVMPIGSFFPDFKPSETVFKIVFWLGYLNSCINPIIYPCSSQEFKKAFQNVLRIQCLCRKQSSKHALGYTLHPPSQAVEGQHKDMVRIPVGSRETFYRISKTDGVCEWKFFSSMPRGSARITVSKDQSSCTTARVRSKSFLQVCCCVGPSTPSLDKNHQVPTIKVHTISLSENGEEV

[6] = molecular target: T3, Alpha-1A adrenergic receptor
D(3) dopamine receptor = D(3) dopamine receptor (Homo sapiens, UniProt P35462)
[7] = molecular target: Glutamate receptor ionotropic, NMDA 1 (Rattus norvegicus, UniProt P35439)
[8] = molecular target: cGMP-inhibited 3',5'-cyclic phosphodiesterase 3A (Homo sapiens, UniProt Q14432); type: functional
[9] = molecular target: Growth hormone secretagogue receptor type 1 (Homo sapiens, UniProt Q92847)
Estrogen receptor = molecular target: T4, Estrogen receptor (Homo sapiens, UniProt P03372)
T4 sequence (P03372 whole entry): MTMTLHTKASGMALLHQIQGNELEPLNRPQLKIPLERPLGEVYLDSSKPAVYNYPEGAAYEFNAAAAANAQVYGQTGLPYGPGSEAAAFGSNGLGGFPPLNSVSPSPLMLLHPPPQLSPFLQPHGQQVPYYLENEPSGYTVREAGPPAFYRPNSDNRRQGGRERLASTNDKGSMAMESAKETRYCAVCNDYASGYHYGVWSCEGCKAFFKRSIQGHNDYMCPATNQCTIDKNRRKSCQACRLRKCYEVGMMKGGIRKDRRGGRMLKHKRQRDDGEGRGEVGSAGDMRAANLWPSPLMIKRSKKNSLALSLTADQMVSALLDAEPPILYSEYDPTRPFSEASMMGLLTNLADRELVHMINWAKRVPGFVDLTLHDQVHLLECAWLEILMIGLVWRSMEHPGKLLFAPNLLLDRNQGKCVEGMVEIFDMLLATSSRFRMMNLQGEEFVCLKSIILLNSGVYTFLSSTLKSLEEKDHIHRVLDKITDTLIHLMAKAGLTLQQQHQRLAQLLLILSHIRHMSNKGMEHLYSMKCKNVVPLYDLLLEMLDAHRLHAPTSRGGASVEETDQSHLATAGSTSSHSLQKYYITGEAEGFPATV

Histamine H3 receptor = Histamine H3 receptor (Homo sapiens, UniProt Q9Y5N1)
Endothelin-1 receptor = molecular target: T5, Endothelin-1 receptor (Homo sapiens, UniProt P25101)
T5 sequence (P25101 whole entry): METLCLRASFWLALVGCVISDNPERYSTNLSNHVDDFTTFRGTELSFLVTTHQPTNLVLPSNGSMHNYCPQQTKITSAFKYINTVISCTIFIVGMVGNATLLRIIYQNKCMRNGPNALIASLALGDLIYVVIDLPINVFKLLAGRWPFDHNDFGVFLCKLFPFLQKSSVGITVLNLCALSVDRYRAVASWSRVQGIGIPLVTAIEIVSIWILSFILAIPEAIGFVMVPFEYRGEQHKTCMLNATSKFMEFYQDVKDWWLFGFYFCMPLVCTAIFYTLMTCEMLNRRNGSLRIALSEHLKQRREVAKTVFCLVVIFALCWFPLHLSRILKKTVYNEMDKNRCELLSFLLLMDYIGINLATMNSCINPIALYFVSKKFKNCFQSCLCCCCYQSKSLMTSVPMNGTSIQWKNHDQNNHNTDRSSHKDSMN

[10] = molecular target: Muscarinic acetylcholine receptor M3 (Homo sapiens, UniProt P20309)
Note: assay procedure not described here.

Sequence of cGMP-inhibited 3',5'-cyclic phosphodiesterase 3A (Q14432 whole entry): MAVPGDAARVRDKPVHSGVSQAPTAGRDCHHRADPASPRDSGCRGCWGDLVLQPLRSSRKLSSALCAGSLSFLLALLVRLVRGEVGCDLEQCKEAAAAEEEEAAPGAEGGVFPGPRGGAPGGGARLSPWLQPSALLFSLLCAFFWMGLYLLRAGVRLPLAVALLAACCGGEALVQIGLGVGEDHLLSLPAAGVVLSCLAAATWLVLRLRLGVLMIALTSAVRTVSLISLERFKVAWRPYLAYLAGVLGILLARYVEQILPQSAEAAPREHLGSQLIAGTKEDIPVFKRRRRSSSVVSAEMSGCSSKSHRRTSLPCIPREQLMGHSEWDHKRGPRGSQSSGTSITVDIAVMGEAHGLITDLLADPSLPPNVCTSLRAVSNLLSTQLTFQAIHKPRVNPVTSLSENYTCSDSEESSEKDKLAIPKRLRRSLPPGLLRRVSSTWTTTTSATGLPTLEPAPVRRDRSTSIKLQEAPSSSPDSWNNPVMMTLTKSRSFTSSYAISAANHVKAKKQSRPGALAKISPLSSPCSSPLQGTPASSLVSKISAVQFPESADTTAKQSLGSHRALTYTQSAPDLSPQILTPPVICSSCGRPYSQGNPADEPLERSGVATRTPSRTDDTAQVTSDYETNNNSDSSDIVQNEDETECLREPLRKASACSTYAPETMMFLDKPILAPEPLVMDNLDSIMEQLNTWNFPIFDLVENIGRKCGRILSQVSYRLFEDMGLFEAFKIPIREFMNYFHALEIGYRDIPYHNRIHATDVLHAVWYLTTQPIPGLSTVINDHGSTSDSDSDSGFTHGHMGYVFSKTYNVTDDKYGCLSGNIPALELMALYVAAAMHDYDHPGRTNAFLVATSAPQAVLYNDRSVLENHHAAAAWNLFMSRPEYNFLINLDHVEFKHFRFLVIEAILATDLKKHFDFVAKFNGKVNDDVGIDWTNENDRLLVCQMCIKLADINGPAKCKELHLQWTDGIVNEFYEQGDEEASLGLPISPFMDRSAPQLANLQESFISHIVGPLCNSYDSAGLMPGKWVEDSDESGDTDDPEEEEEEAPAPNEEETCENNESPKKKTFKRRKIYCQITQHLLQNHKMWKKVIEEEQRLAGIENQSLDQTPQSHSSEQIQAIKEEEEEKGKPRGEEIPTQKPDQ
T1 sequence (P62813 whole entry): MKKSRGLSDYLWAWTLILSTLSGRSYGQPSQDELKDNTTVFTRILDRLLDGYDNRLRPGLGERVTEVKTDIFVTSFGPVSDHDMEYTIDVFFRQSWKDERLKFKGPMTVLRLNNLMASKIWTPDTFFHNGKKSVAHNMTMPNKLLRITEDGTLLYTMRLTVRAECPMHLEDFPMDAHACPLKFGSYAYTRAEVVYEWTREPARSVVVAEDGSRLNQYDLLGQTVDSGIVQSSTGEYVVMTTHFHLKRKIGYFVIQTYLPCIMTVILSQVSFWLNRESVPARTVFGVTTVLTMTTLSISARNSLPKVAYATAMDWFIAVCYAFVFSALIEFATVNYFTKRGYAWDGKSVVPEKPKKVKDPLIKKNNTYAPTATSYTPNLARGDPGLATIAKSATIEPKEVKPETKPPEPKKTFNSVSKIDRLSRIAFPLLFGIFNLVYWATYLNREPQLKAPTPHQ
Sequence of Histamine H3 receptor (Q9Y5N1 whole entry): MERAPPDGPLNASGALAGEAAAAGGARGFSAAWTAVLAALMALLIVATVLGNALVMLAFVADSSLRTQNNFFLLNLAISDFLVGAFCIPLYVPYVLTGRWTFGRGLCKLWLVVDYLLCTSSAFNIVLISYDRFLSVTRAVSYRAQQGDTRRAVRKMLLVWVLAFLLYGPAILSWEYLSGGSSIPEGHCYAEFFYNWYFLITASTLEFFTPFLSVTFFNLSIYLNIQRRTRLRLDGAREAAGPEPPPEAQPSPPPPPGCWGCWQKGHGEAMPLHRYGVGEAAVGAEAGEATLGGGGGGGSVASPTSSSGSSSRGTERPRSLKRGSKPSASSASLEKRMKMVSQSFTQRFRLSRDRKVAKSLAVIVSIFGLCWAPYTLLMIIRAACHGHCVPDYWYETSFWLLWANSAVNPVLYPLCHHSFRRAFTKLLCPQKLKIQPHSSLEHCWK
Sequence of Growth hormone secretagogue receptor type 1 (Q92847 whole entry): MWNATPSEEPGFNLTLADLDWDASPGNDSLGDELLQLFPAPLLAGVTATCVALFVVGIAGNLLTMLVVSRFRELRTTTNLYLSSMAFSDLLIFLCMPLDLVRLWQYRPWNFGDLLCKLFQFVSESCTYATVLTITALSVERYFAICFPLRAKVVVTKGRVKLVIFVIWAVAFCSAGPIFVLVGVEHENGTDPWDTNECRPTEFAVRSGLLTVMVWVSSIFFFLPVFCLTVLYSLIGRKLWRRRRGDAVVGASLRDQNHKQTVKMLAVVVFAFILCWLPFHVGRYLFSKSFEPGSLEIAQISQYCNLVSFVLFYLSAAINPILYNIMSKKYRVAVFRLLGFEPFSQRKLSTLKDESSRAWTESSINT
Sequence of Motilin receptor (O43193 whole entry): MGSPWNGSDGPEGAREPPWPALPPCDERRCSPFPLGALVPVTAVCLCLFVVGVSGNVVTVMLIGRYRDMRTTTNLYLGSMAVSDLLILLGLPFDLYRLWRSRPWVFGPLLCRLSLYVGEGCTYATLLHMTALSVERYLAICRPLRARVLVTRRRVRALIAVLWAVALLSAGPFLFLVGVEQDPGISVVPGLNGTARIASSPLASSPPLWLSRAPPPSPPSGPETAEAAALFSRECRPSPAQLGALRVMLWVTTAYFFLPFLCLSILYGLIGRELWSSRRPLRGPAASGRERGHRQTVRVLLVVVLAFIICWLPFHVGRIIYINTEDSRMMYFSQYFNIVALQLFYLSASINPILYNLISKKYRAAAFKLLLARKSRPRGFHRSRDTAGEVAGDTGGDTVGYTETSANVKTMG
Sequence of Beta-2 adrenergic receptor (P07550 whole entry): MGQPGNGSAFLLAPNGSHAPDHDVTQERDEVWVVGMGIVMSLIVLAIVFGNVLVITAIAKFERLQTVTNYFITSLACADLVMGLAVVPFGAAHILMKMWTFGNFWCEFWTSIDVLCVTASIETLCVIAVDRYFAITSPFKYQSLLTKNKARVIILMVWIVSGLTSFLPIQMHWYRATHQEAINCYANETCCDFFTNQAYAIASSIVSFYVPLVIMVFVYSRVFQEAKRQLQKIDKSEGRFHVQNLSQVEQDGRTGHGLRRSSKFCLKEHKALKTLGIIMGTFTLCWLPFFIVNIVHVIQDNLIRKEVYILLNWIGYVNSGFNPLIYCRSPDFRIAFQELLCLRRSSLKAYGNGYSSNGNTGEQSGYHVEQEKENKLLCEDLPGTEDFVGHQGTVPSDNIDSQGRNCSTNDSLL
Sequence of D(3) dopamine receptor (P35462 whole entry): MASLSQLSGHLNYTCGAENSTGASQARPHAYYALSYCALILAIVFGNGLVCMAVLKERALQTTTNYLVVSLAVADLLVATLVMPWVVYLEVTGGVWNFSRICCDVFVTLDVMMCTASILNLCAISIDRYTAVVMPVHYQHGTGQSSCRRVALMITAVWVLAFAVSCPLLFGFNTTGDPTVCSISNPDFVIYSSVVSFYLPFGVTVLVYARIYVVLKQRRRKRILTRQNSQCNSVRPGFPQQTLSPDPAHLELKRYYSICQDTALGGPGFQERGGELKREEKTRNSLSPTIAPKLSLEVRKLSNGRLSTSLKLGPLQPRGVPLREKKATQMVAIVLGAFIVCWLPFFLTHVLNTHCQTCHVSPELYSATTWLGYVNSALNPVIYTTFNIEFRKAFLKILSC
Sequence of Melanocortin receptor 4 (P32245 whole entry): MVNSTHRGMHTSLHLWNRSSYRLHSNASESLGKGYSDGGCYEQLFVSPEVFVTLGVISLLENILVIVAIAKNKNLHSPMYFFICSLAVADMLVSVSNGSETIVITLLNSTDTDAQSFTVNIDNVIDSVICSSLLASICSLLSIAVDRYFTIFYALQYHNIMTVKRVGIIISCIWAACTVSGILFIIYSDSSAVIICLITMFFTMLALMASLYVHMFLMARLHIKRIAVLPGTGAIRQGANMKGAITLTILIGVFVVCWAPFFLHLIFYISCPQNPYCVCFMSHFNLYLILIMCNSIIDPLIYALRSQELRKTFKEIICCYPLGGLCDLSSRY
Sequence of Muscarinic acetylcholine receptor M3 (P20309 whole entry): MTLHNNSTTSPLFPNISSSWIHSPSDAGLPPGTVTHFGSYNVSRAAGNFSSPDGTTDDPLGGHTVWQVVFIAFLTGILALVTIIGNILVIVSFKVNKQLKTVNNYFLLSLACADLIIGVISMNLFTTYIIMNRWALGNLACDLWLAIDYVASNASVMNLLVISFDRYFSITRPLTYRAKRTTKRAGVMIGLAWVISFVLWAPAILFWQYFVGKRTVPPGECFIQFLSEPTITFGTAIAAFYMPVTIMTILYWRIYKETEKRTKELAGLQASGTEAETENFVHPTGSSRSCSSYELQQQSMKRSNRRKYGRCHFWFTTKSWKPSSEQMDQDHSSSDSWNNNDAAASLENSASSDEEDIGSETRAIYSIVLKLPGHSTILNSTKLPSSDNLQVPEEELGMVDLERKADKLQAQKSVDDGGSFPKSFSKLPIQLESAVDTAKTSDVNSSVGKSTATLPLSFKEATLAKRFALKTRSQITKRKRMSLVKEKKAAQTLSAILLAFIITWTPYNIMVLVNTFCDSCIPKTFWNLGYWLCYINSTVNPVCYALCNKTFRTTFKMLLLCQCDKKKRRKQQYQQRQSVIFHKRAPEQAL

Row | Structure (SMILES) | AC50 [1] [µM] | AC50 (Motilin receptor) [µM] | AC50 [2] [µM] | AC50 [3] [µM] | AC50 (Melanocortin receptor 4) [µM] | AC50 [4] [µM] | AC50 [5] [µM] | AC50 [6] [µM] | AC50 (D(3) dopamine receptor) [µM] | AC50 [7] [µM] | AC50 [8] [µM] | AC50 [9] [µM] | AC50 (Estrogen receptor) [µM] | AC50 (Histamine H3 receptor) [µM] | AC50 (Endothelin-1 receptor) [µM] | AC50 [10] [µM]
1 | N=C(N)NC(=O)Cc1c(Cl)cccc1Cl [GUANFACINE] | > 30 | > 10 | > 30 | > 30 | > 30 | > 10 | 0.0245 | 7.64 | 20 | > 30 | > 30 | > 30 |  |  |  | 
2 | CCC1(C)CC(=O)NC1=O (stereo not drawn) [ETHOSUXIMIDE] | > 10 | > 10 | > 10 | > 10 | > 10 | > 10 |  | > 30 | > 30 | > 10 | > 30 | > 10 | > 10 |  |  | 
3 | OCCN(CCO)c1nc(N2CCCCC2)c2nc(N(CCO)CCO)nc(N3CCCCC3)c2n1 [DIPYRIDAMOLE] | > 30 |  | 1.4 | > 10 | > 30 |  | 3.5 | > 30 | > 30 | > 30 | > 30 | > 30 | > 30 |  |  | 
4 | CC(C)(C)NCC(O)COc1cccc2c1CC(O)C(O)C2 (stereo not drawn) [NADOLOL] | > 10 | > 10 | > 10 |  | > 10 |  | > 30 | > 10 | > 30 | > 10 | > 30 | > 10 | > 10 | > 10 |  | 
5 | CC(=O)N1CCN(c2ccc(OCC3COC(Cn4ccnc4)(c4ccc(Cl)cc4Cl)O3)cc2)CC1 (stereo not drawn) [KETOCONAZOLE] | > 10 | > 10 | > 10 |  | > 10 | > 10 |  | > 10 | > 30 | > 10 | > 30 | > 10 | > 10 | > 10 |  | 
6 | O=C(O[C@H]1C[N+]2(CCCOc3ccccc3)CCC1CC2)C(O)(c1cccs1)c1cccs1 [ACLIDINIUM BROMIDE] | > 10 | > 10 | > 10 |  | > 30 | > 10 |  |  | > 10 | > 10 | > 30 | > 30 | > 30 | > 10 | > 30 | 
7 | CC1Cc2ccccc2N1NC(=O)c1ccc(Cl)c(S(N)(=O)=O)c1 (stereo not drawn) [INDAPAMIDE] | > 10 | > 10 | > 10 |  | > 30 | > 10 | > 30 | > 10 | > 30 | > 10 | > 10 | > 30 | > 30 | > 10 |  | 
8 | CCc1ccc(C(=O)C(C)CN2CCCCC2)cc1 (stereo not drawn) [EPERISONE] | > 30 | > 30 | > 30 |  |  | > 30 | > 30 | > 30 | 9.4 | > 30 | > 30 | > 30 |  | 1.3 | > 30 | 
9 | CC(C)CN(C[C@@H](O)[C@H](Cc1ccccc1)NC(=O)O[C@H]1CCOC1)S(=O)(=O)c1ccc(N)cc1 | > 10 | 7.3 | > 10 |  | > 30 | > 10 | > 30 | > 10 | > 30 | > 10 | > 30 | > 30 | > 10 | > 10 |  | 
10 | CC(=O)[C@@]1(O)CC[C@H]2[C@@H]3C[C@H](C)C4=CC(=O)C=C[C@]4(C)[C@@]3(F)[C@@H](O)C[C@@]21C [FLUOROMETHOLONE] | > 10 | > 10 | > 10 |  | > 10 | > 10 | > 30 | > 10 | > 30 | > 10 | > 30 | > 10 | > 30 | > 10 |  | 
11 | Nc1cc(N2CCCCC2)nc(N)[n+]1[O-] [MINOXIDIL] | > 10 | > 10 | > 10 |  | > 30 | > 30 | > 30 | > 10 | > 30 | > 10 | > 30 | > 30 | > 30 | > 10 |  | 
12 | CC(=O)OCC1=C(C(=O)O)N2C(=O)[C@@H](NC(=O)CSc3ccncc3)[C@H]2SC1 [CEPHAPIRIN] | > 10 | > 10 | > 10 | > 10 | > 10 | > 10 |  | > 10 | > 30 | > 10 | > 30 | > 10 |  |  |  | > 30
13 | Nc1ccc(S(=O)(=O)Nc2ncccn2)cc1 [SULFADIAZINE] | > 10 | > 10 | > 10 | > 10 | > 10 | > 10 |  | > 10 | > 30 | > 10 | > 30 | > 10 |  | > 10 |  | 
14 | CCC(NC(C)C)C(O)c1ccc(O)c(O)c1 (stereo not drawn) [ISOETHARINE] | > 30 | > 30 | > 30 | > 30 |  | 5.43 |  | > 30 | > 30 | > 30 | > 30 | > 30 |  | > 30 | > 30 | > 30
15 | CC1=C(CC(=O)O)c2cc(F)ccc2/C1=C\c1ccc([S+](C)[O-])cc1 (stereo not drawn) | > 10 | > 10 | > 10 | > 10 | > 30 | > 10 | > 30 | > 10 | > 30 | > 10 | > 30 | > 30 |  | > 10 | > 30 | 
16 | COc1nc(C)nc(Cl)c1N=C1NCCN1 [MOXONIDINE] | > 30 | > 30 | > 30 | > 30 |  |  | 0.09 | > 30 | > 30 | > 30 | > 30 | > 30 |  | > 30 | > 30 | 
